tested on: YAP-TEAD; test: TEAD inhibition, Hippo Pathway TEAD Reporter MCF-7 luciferase assay; format: cell-based; details: Homo sapiens, MCF7, 24 h, Hippo Pathway TEAD Reporter MCF-7 cells, luciferase activity after 24 h; read-out: IC50 of the test compounds on YAP-TEAD inhibition (Group)
How it was run: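 MCF-7 cells carrying a TEAD-responsive firefly luciferase reporter, with nuclear YAP1 driving constitutive expression, were treated the day after plating with compounds (11 concentrations, 4 replicates; 0.1% DMSO control). After 24 h, luciferase was read by ONE-Glo luminescence and IC50 determined.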

| Structure (SMILES) | IC50 [nM] |
| --- | --- |
| COc1ccc(Oc2ccc(C(F)(F)F)cc2)cc1NC(=O)C1CCNC(=O)C1 (centres unmarked) [Compound 322, N-(2-Methoxy-5-(4-(trifluoromethyl)phenoxy)phenyl)-2-oxopiperidine-4-carboxamide] | < 50 |
| COc1ccc(Oc2ccc(C(F)(F)F)cc2)cc1NC(=O)C1CCN(C)C(=O)C1 (centres unmarked) [Compound 323, N-(2-Methoxy-5-(4-(trifluoromethyl)phenoxy)phenyl)-1-methyl-2-oxo-piperidine-4-carboxamide] | 301 to 2000 |
| COc1ccc(Oc2ccc(C(F)(F)F)cc2)cc1NC(=O)C1CCN(S(C)(=O)=O)C1 (centres unmarked) [Compound 326, N-(2-Methoxy-5-(4-(trifluoromethyl)phenoxy)phenyl)-1-(methylsulfonyl)-pyrrolidine-3-carboxamide] | 301 to 2000 |
| COc1ccc(Oc2cc(C(F)(F)F)ccn2)cc1NC(=O)C1CCNC(=O)C1 (centres unmarked) [Compound 327, N-(2-methoxy-5-((4-(trifluoromethyl)pyridin-2-yl)oxy)phenyl)-2-oxopiperidine-4-carboxamide] | 301 to 2000 |
| CN1C(=O)CCC1C(=O)Nc1cc(Oc2ccc(OC(F)(F)F)cc2)ccc1F (centres unmarked) [Compound 328, N-(2-Fluoro-5-(4-(trifluoromethoxy)phenoxy)phenyl)-1-methyl-S-oxopyrrolidine-2-carboxamide] | 50 to 300 |
| CN1C(=O)CCC1C(=O)Nc1cc(Oc2ccc(OC(F)(F)F)cc2)ccc1Cl (centres unmarked) [Compound 329, N-(2-Chloro-5-(4-(trifluoromethoxy)phenoxy)phenyl)-1-methyl-5-oxo-pyrrolidine-2-carboxamide] | 301 to 2000 |
| CN1C(=O)CCC1C(=O)Nc1cc(Oc2ccc(C(F)(F)F)cc2)ccc1C(N)=O (centres unmarked) [Compound 330, N-(2-Carbamoyl-5-(4-(trifluoromethyl)phenoxy)phenyl)-1-methyl-5-oxopyrrolidine-2-carboxamide] | 301 to 2000 |
| COCC(=O)N1C(=O)CCC1C(=O)Nc1cc(Oc2cc(C(F)(F)F)ccn2)ccc1OC (centres unmarked) [Compound 331, N-(2-Methoxy-5-((4-(trifluoromethyl)-pyridin-2-yl)oxy)phenyl)-1-(2-methoxyacetyl)-5-oxopyrrolidine-2-carboxamide] | 50 to 300 |
| COc1ccc(Oc2ccc(C(F)(F)F)cc2)cc1NC(=O)[C@@H]1CN(C)C(=O)N1 [Compound 332, (S)—N-(2-Methoxy-5-(4-(trifluoromethyl)phenoxy)phenyl)-1-methyl-2-oxo-imidazolidine-4-carboxamide] | 301 to 2000 |
| COCC(=O)N1C(=O)CC[C@H]1C(=O)Nc1cc(Oc2ccc(C(F)(F)F)cc2)ccc1OC [Compound 333, (S)—N-(2-Methoxy-5-(4-(trifluoromethyl)phenoxy)phenyl)-1-(2-methoxyacetyl)-5-oxopyrrolidine-2-carboxamide] | 301 to 2000 |
| COCC(=O)N1C(=O)CCC1C(=O)Nc1cc(Oc2ncc(C(F)(F)F)cc2F)ccc1OC (centres unmarked) [Compound 334, N-(5-((3-Fluoro-5-(trifluoromethyl)pyridin-2-yl)oxy)-2-methoxyphenyl)-1-(2-methoxyacetyl)-5-oxopyrrolidine-2-carboxamide] | 50 to 300 |
| COc1ccc(Oc2ccc(C(F)(F)F)cc2)cc1NC(=O)C1CNC(=O)C1 (centres unmarked) [Compound 335, N-(2-Methoxy-5-(4-(trifluoromethyl)phenoxy)phenyl)-5-oxopyrrolidine-3-carboxamide] | < 50 |
| COCC(=O)N1CCC[C@H]1C(=O)Nc1cc(Oc2ccc(C(F)(F)F)cc2)ccc1OC [Compound 336, (S)—N-(2-Methoxy-5-(4-(trifluoromethyl)phenoxy)phenyl)-1-(2-methoxyacetyl)-pyrrolidine-2-carboxamide] | 50 to 300 |
| COc1ccc(Oc2ccc(C(F)(F)F)cc2)cc1NC(=O)[C@@H]1CCCN1CC(N)=O [Compound 337, (S)-1-(2-Amino-2-oxoethyl)-N-(2-methoxy-5-(4-(trifluoromethyl)phenoxy)-phenyl)pyrrolidine-2-carboxamide] | 50 to 300 |
| COc1ccc(Oc2ccc(Cl)c(F)c2)cc1NC(=O)[C@@H]1CNC(=O)N1C [Compound 338, (S)—N-(5-(4-Chloro-3-fluorophenoxy)-2-methoxyphenyl)-3-methyl-2-oxo-imidazolidine-4-carboxamide] | < 50 |
| COc1ccc(Oc2ncc(C(F)(F)F)cc2F)cc1NC(=O)[C@@H]1CNC(=O)N1C [Compound 339, (S)—N-(5-((3-Fluoro-5-(trifluoromethyl)pyridin-2-yl)oxy)-2-methoxyphenyl)-3-methyl-2-oxoimidazolidine-4-carboxamide] | < 50 |
| COc1ccc(Oc2ccc(C(F)F)cc2)cc1NC(=O)[C@@H]1CNC(=O)N1C [Compound 340, (S)—N-(5-(4-(Difluoromethyl)phenoxy)-2-methoxyphenyl)-3-methyl-2-oxo-imidazolidine-4-carboxamide] | < 50 |
| COc1ccc(Oc2ccc(C(F)(F)F)cc2)cc1NC(=O)CC1C(=O)N(C)C(=O)N1C (centres unmarked) [Compound 341, 2-(1,3-Dimethyl-2,5-dioxoimidazolidin-4-yl)-N-(2-methoxy-5-(4-(trifluoro-methyl)phenoxy)phenyl)acetamide] | 301 to 2000 |

More lines, now with the values ahead:

| IC50 [nM] | Structure (SMILES) |
| --- | --- |
| 50 to 300 | COc1ccc(Oc2ccc(C(F)(F)F)cc2)cc1NC(=O)[C@@H]1CN(C)C(=O)N1C(C)=O [Compound 342, (S)-3-Acetyl-N-(2-methoxy-5-(4-(trifluoromethyl)phenoxy)phenyl)-1-methyl-2-oxoimidazolidine-4-carboxamide] |
| 301 to 2000 | COc1ccc(Oc2ncc(C(F)(F)F)cc2F)cc1NC(=O)[C@@H]1CN(C)C(=O)N1C(C)=O [Compound 343, (S)-3-Acetyl-N-(5-((3-fluoro-5-(trifluoromethyl)pyridin-2-yl)oxy)-2-methoxy-phenyl)-1-methyl-2-oxoimidazolidine-4-carboxamide] |
| 301 to 2000 | COc1ccc(Oc2ccc(C(F)(F)F)cn2)cc1NC(=O)C1CNC(=O)C1 (centres unmarked) [Compound 344, N-(2-Methoxy-5-((5-(trifluoromethyl)pyridin-2-yl)oxy)phenyl)-5-oxopyrrolidine-3-carboxamide carboxamide] |
| < 50 | COc1ccc(Oc2ncc(C(F)(F)F)cc2Cl)cc1NC(=O)[C@@H]1CNC(=O)N1C [Compound 345, (S)—N-(5-((3-Chloro-5-(trifluoromethyl)pyridin-2-yl)oxy)-2-methoxyphenyl)-3-methyl-2-oxoimidazolidine-4-carboxamide] |
| 50 to 300 | COc1ccc(Oc2ccc(C(F)(F)F)cn2)cc1NC(=O)[C@@H]1CN(C)C(=O)N1C [Compound 346, (S)—N-(2-Methoxy-5-((5-(trifluoromethyl)pyridin-2-yl)oxy)phenyl)-1,3-dimethyl-2-oxoimidazolidine-4-carboxamide] |
| 301 to 2000 | COCC(=O)N1CCC[C@@H]1C(=O)Nc1cc(Oc2ccc(C(F)(F)F)cc2)ccc1OC [Compound 347, (R)—N-(2-Methoxy-5-(4-(trifluoromethyl)phenoxy)phenyl)-1-(2-methoxyacetyl)-pyrrolidine-2-carboxamide] |
| < 50 | COc1ccc(Oc2cccc(Cl)c2)cc1NC(=O)[C@@H]1CNC(=O)N1C [Compound 348, (S)—N-(5-(3-Chlorophenoxy)-2-methoxyphenyl)-3-methyl-2-oxoimidazolidine-4-carboxamide] |
| < 50 | COc1ccc(Oc2ccc(C(F)(F)F)cc2)cc1NC(=O)C1CC(=O)N(C)C1 (centres unmarked) [Compound 349, N-(2-Methoxy-5-(4-(trifluoromethyl)phenoxy)phenyl)-1-methyl-5-oxo-pyrrolidine-3-carboxamide] |
| 50 to 300 | COc1ccc(Oc2ccc(C(F)(F)F)cc2Cl)cc1NC(=O)C1CCC(=O)N1 (centres unmarked) [Compound 350, N-(5-(2-Chloro-4-(trifluoromethyl)phenoxy)-2-methoxyphenyl)-5-oxopyrrolidi-ne-2-carboxamide] |
| < 50 | CN1C(=O)NC[C@H]1C(=O)Nc1cc(Cl)cc(Oc2ccc(C(F)(F)F)cn2)c1 [Compound 351, (S)—N-(3-Chloro-5-((5-(trifluoromethyl)pyridin-2-yl)oxy)phenyl)-3-methyl-2-oxoimidazolidine-4-carboxamide] |
| < 50 | CN1C(=O)CCC1C(=O)Nc1cc(Cl)cc(Oc2ccc(C(F)(F)F)cn2)c1 (centres unmarked) [Compound 352, N-(3-Chloro-5-((5-(trifluoromethyl)pyridin-2-yl)oxy)phenyl)-1-methyl-5-oxopyrrolidine-2-carboxamide] |
| 301 to 2000 | COc1ccc(Oc2ccc(CF)cc2)cc1NC(=O)[C@@H]1CNC(=O)N1C [Compound 353, (S)—N-(5-(4-(Fluoromethyl)phenoxy)-2-methoxyphenyl)-3-methyl-2-oxoimidazolidine-4-carboxamide] |
| 301 to 2000 | COC(=O)CN1C(=O)CCC1C(=O)Nc1cc(Oc2ccc(C(F)(F)F)cc2)ccc1OC (centres unmarked) [Compound 354, Methyl 2-(2-((2-methoxy-5-(4-(trifluoromethyl)phenoxy)phenyl)carbamoyl)-5-oxopyrrolidin-1-yl)acetate] |
| < 50 | COc1ccc(Oc2ccc(C(F)(F)F)cc2)cc1NC(=O)[C@@H]1CNC(=O)C1 [Compound 355, (S)—N-(2-Methoxy-5-(4-(trifluoromethyl)phenoxy)phenyl)-5-oxopyrrolidine-3-carboxamide] |
| < 50 | COc1ccc(Oc2ccc(Cl)cc2)cc1NC(=O)[C@@H]1CNC(=O)N1C [Compound 356, (S)—N-(5-(4-Chlorophenoxy)-2-methoxyphenyl)-3-methyl-2-oxoimidazolidine-4-carboxamide] |
| 50 to 300 | COc1ccc(Oc2ccc(C(F)(F)F)cc2)cc1NC(=O)[C@H]1CNC(=O)C1 [Compound 357, (R)—N-(2-Methoxy-5-(4-(trifluoromethyl)phenoxy)phenyl)-5-oxopyrrolidine-3-carboxamide] |
| 301 to 2000 | COc1ccc(Oc2ncc(C(F)(F)F)cc2F)cc1NC(=O)[C@@H]1CCCN1C(C)=O [Compound 358, (S)-1-Acetyl-N-(5-((3-fluoro-5-(trifluoromethyl)pyridin-2-yl)oxy)-2-methoxyphenyl)pyrrolidine-2-carboxamide] |

Source: patent US20240246908A1 (ORION CORPORATION, priority 2021, published 2024)
